Experimental data reported in publication PMC10653643 (Journal of Enzyme Inhibition and Medicinal Chemistry, 2023).
Like-named read-outs stand apart in the source and are kept apart here.

Assays:
[1] = target: H1N1 neuraminidase (NA), group-1 (Influenza A virus, UniProt P03468); test: biochemical
in vitro = conditions: dog
[2] = test system: A/Wisconsin/67/05 (H3N2) virus in MDCK cells; test: microbe, parasite or virus in culture; assay type: cell-based, influenza A virus H3N2; conditions: for EC50: read-out: EC50 towards influenza virus H3N2
[3] = test system: A/PR/8/34 (H1N1) virus in MDCK cells; test: microbe, parasite or virus in culture; assay type: cell-based, influenza A virus H1N1; conditions: read-out: EC50 towards influenza virus H1N1
[4] = Influenza A virus, H1N1|PR/8, MDCK

Chain of H1N1 neuraminidase (NA), group-1 (P03468 36-454 limits assumed): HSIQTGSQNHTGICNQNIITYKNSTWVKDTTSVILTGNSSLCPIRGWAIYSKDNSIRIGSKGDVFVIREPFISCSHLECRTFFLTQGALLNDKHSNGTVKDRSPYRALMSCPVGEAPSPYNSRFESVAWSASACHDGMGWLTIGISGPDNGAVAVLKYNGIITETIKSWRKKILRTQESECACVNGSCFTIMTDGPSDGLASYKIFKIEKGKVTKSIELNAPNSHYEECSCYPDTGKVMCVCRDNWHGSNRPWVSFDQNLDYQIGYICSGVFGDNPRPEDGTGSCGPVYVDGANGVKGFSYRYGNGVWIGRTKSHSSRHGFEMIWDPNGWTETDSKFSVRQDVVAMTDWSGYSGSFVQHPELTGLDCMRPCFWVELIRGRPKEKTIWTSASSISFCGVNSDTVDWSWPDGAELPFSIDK

Q: With `CCC(CC)O[C@@H]1C=C(C(=O)O)C[C@H](NCc2ccc(-c3c(C)nc(N)nc3C)cc2)[C@H]1NC(C)=O` [3e, (3R,4R,5S)-4-acetamido-5-((4–(2-amino-4,6-dimethylpyrimidin-5-yl)benzyl)amino)-3-(pentan-3-yloxy)cyclohex-1-ene-1-carboxylic acid] as the compound, how does the IC50 [1] read?
A: 8.06 ± 0.48 µM

Q: For `CCC(CC)O[C@@H]1C=C(C(=O)O)C[C@H](NCc2ccc(N3CCC4(CC3)CN(C(=O)OC(C)(C)C)C4)cc2)[C@H]1NC(C)=O` [6a, (3R,4R,5S)-4-acetamido-5-((4–(2-(tert-butoxycarbonyl)-2,7-diazaspiro[3.5]nonan-7-yl)benzyl)amino)-3-(pentan-3-yloxy)cyclohex-1-ene-1-carboxylic acid], which IC50 [1] is on record?
A: 3.94 ± 0.11 µM

Q: Which IC50 [1] does the source give for `CCC(CC)O[C@@H]1C=C(C(=O)O)C[C@H](NCc2ccc(N(C)CC)cc2)[C@H]1NC(C)=O` [6o, (3R,4R,5S)-4-acetamido-5-((4-(ethyl(methyl)amino)benzyl)amino)-3-(pentan-3-yloxy)cyclohex-1-ene-1-carboxylic acid] here?
A: 0.36 ± 0.018 µM

Q: With `CCC(CC)O[C@@H]1C=C(C(=O)O)C[C@H](NCc2ccc(N3CC4(CCN(C(=O)OC(C)(C)C)CC4)C3)cc2)[C@H]1NC(C)=O` [6c, (3R,4R,5S)-4-acetamido-5-((4–(7-(tert-butoxycarbonyl)-2,7-diazaspiro[3.5]nonan-2-yl)benzyl)amino)-3-(pentan-3-yloxy)cyclohex-1-ene-1-carboxylic acid] as the compound, how does the IC50 [1] read?
A: 1.4 ± 0.073 µM

Q: With `CCC(CC)O[C@@H]1C=C(C(=O)O)C[C@H](NCc2ccc(N3CCC3)cc2)[C@H]1NC(C)=O` [6n, (3R,4R,5S)-4-acetamido-5-((4-(azetidin-1-yl)benzyl)amino)-3-(pentan-3-yloxy)cyclohex-1-ene-1-carboxylic acid] as the compound, how does the IC50 [1] read?
A: 0.14 ± 0.01 µM

Q: For `CCC(CC)O[C@@H]1C=C(C(=O)O)C[C@H](NCc2ccc(N3CCC4(CC3)OCCO4)cc2)[C@H]1NC(C)=O` [6e, (3R,4R,5S)-5-((4–(1,4-dioxa-8-azaspiro[4.5]decan-8-yl)benzyl)amino)-4-acetamido-3-(pentan-3-yloxy)cyclohex-1-ene-1-carboxylic acid], which IC50 [1] is on record?
A: 1.99 ± 0.19 µM

Q: With `CCC(CC)O[C@@H]1C=C(C(=O)O)C[C@H](NCc2ccc(-c3cncnc3)cc2)[C@H]1NC(C)=O` [3c, (3R,4R,5S)-4-acetamido-3-(pentan-3-yloxy)-5-((4-(pyrimidin-5-yl)benzyl)amino)cyclohex-1-ene-1-carboxylic acid] as the compound, how does the IC50 [1] read?
A: 12.1 ± 1.1 µM

Q: Which IC50 [1] does the source give for `CCC(CC)O[C@@H]1C=C(C(=O)O)C[C@H](NCc2ccc(N3CC4CCCCC4C3)cc2)[C@H]1NC(C)=O` (stereo partly drawn) [6i, (3R,4R,5S)-4-acetamido-5-((4-(octahydro-2H-isoindol-2-yl)benzyl)amino)-3-(pentan-3-yloxy)cyclohex-1-ene-1-carboxylic acid] here?
A: 0.15 ± 0.031 µM

Q: And the CC50 (in vitro)?
A: > 250 µM

Q: And the EC50 ([2]; Influenza A virus, H3N2, MDCK)?
A: 0.32 ± 0.08 µM

Q: What about the EC50 [3, 4] of the same compound?
A: 0.03 ± 0.03 µM

Q: For `CCC(CC)O[C@@H]1C=C(C(=O)O)C[C@H](NCc2ccc(N3CC4C(C3)C4(C)C)cc2)[C@H]1NC(C)=O` (stereo partly drawn) [6f, (3R,4R,5S)-4-acetamido-5-((4–(6,6-dimethyl-3-azabicyclo[3.1.0]hexan-3-yl)benzyl)amino)-3-(pentan-3-yloxy)cyclohex-1-ene-1-carboxylic acid], which IC50 [1] is on record?
A: 0.43 ± 0.036 µM

Q: With `CCC(CC)O[C@@H]1C=C(C(=O)O)C[C@H](N)[C@H]1NC(C)=O` [OSC, oseltamivir carboxylate, reference compound] as the compound, how does the CC50 (in vitro) read?
A: > 250 µM

Q: And the EC50 [2]?
A: 0.36 ± 0.16 µM

Q: With `CCC(CC)O[C@@H]1C=C(C(=O)O)C[C@H](NCc2ccc(-c3cnc(Cl)nc3)cc2)[C@H]1NC(C)=O` [3d, (3R,4R,5S)-4-acetamido-5-((4–(2-chloropyrimidin-5-yl)benzyl)amino)-3-(pentan-3-yloxy)cyclohex-1-ene-1-carboxylic acid] as the compound, how does the IC50 [1] read?
A: 4.34 ± 0.36 µM

Q: With `CCC(CC)O[C@@H]1C=C(C(=O)O)C[C@H](NCc2ccc(N3CC4(CN(C(=O)OC(C)(C)C)C4)C3)cc2)[C@H]1NC(C)=O` [6d, (3R,4R,5S)-4-acetamido-5-((4–(6-(tert-butoxycarbonyl)-2,6-diazaspiro[3.3]heptan-2-yl)benzyl)amino)-3-(pentan-3-yloxy)cyclohex-1-ene-1-carboxylic acid] as the compound, how does the IC50 [1] read?
A: 3.1 ± 0.24 µM

Q: For `CCC(CC)O[C@@H]1C=C(C(=O)O)C[C@H](NCc2ccc(N3CCC4(CCN(C(=O)OC(C)(C)C)C4)C3)cc2)[C@H]1NC(C)=O` (stereo partly drawn) [6b, (3R,4R,5S)-4-acetamido-5-((4–(7-(tert-butoxycarbonyl)-2,7-diazaspiro[4.4]nonan-2-yl)benzyl)amino)-3-(pentan-3-yloxy)cyclohex-1-ene-1-carboxylic acid], which IC50 [1] is on record?
A: 0.4 ± 0.033 µM

Q: For `CCC(CC)O[C@@H]1C=C(C(=O)O)C[C@H](NCc2ccc(N3CC4CCCC4C3)cc2)[C@H]1NC(C)=O` (stereo partly drawn) [6h, (3R,4R,5S)-4-acetamido-5-((4-(hexahydrocyclopenta[c]pyrrol-2(1H)-yl)benzyl)amino)-3-(pentan-3-yloxy)cyclohex-1-ene-1-carboxylic acid], which IC50 [1] is on record?
A: 0.3 ± 0.0016 µM

Q: With `CCC(CC)O[C@@H]1C=C(C(=O)O)C[C@H](NCc2ccc(N3CCC[C@H]3C)cc2)[C@H]1NC(C)=O` [6k, (3R,4R,5S)-4-acetamido-5-((4-((R)-2-methylpyrrolidin-1-yl)benzyl)amino)-3-(pentan-3-yloxy)cyclohex-1-ene-1-carboxylic acid] as the compound, how does the IC50 [1] read?
A: 0.084 ± 0.0072 µM

Q: What about the CC50 (in vitro) of the same compound?
A: > 250 µM

Q: And the “fold activity enhancement over OSC against H3N2 virus” value [2]?
A: ~3 fold

Q: And the “fold activity enhancement over zanamivir (ZA) against H3N2 virus” value [2]?
A: ~2 fold

Q: And the EC50 ([2]; Influenza A virus, H3N2, MDCK)?
A: 0.12 ± 0.03 µM

Q: And the EC50 [3, 4]?
A: 0.02 ± 0.01 µM

Q: For `CC(=O)N[C@H]1[C@H]([C@H](O)[C@H](O)CO)OC(C(=O)O)=C[C@@H]1N=C(N)N` [ZA, zanamivir, reference compound], which CC50 (in vitro) is on record?
A: > 250 µM

Q: And the EC50 ([2]; Influenza A virus, H3N2, MDCK)?
A: 0.27 ± 0.03 µM

Q: What does the source list for `CCC(CC)O[C@@H]1C=C(C(=O)O)C[C@H](NCc2ccc(N3CC4CC4C3)cc2)[C@H]1NC(C)=O` (stereo partly drawn) [6g, (3R,4R,5S)-5-((4–(3-azabicyclo[3.1.0]hexan-3-yl)benzyl)amino)-4-acetamido-3-(pentan-3-yloxy)cyclohex-1-ene-1-carboxylic acid]?
A: IC50 [1]: 0.19 ± 0.0096 µM; CC50 (in vitro): > 250 µM; fold activity enhancement over zanamivir (ZA) against H3N2 virus [2]: ~2 fold; EC50 ([2]; Influenza A virus, H3N2, MDCK): 0.16 ± 0.08 µM; EC50 [3, 4]: 0.03 ± 0.03 µM
